Laboratory results as given in patent publication EP4700025A1, “AMIDE COMPOUND, PHARMACEUTICAL COMPOSITION COMPRISING SAME, AND USE THEREOF” (Suzhou Genhouse Bio Co., Ltd., priority 2023, dated 2024).
Like-named read-outs stand apart in the source and are kept apart here.

Key:
[1] = target: T1, CYP450 1A2 (Homo sapiens, UniProt P05177); assay: Inhibition of human liver microsome CYP450 enzyme 1A2; type: in vitro ADME
T1 construct: from tissue; host or cells: human liver microsomes
T1 sequence (P05177 1-516): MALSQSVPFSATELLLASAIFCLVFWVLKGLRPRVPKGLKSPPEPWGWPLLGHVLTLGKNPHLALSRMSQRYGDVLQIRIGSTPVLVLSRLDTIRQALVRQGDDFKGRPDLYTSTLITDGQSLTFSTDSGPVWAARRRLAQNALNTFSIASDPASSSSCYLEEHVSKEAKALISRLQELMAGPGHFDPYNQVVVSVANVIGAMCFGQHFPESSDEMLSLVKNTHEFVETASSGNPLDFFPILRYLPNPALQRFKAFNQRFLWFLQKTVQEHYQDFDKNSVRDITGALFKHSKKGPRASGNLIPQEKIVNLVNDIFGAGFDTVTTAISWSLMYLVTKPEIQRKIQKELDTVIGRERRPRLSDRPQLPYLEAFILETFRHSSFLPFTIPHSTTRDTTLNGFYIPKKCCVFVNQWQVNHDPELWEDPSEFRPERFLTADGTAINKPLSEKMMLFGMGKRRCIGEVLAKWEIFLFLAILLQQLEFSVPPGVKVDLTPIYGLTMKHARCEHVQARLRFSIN
Method: (§1) 100 mM K-Buffer: 9.5 mL of stock solution A was mixed with 40.5 mL of stock solution B, the total volume was adjusted to 500 mL with ultrapure water, and the buffer was titrated to pH 7.4 with KOH or H3PO4. • Starting material A (1 M potassium dihydrogen phosphate): 136.5 g of potassium dihydrogen phosphate in 1 L of water; • Stock solution B ([…]): 174.2 g of potassium dihydrogen phosphate in 1 L of water.
(§2) The test substance powder was prepared into a stock solution at a certain concentration with DMSO or another organic solvent, which was then further diluted with a suitable organic solvent.
(§3) The liver microsomal in vitro incubation system for the CYP450 enzyme metabolism phenotype study was a biochemical reaction of the prepared liver microsomes supplemented with a redox coenzyme and an enzyme-specific selective inhibitor under simulated physiological temperature and physiological environment conditions.
(§4) The concentration of the parent drug or a metabolite thereof in the incubation solution was determined by LC-MS/MS. and the IC50 value was calculated.

[2] = target: T2, CYP450 2C9 (Homo sapiens, UniProt P11712); assay: Inhibition of human liver microsome CYP450 enzyme 2C9; type: in vitro ADME
T2 construct: from tissue; host or cells: human liver microsomes
Method: as §1, §2, §3, §4

[3] = target: T3, CYP450 2C19 (Homo sapiens, UniProt P33261); assay: Inhibition of human liver microsome CYP450 enzyme 2C19; type: in vitro ADME
T3 construct: from tissue; host or cells: human liver microsomes
Method: as §1, §2, §3, §4

[4] = target: T4, CYP450 2D6 (Homo sapiens, UniProt P10635); assay: Inhibition of human liver microsome CYP450 enzyme 2D6; type: in vitro ADME
T4 construct: from tissue; host or cells: human liver microsomes
Method: as §1, §2, §3, §4

[5] = target: T5, hERG Potassium Ion Channel (Homo sapiens, UniProt Q12809); assay: Effect on hERG potassium ion channel (whole-cell patch clamp, HEK293 cells); type: cell-based; settings: human, whole-cell patch clamp (Qpatch), room temperature
T5 construct: expressed in transfected cells; host or cells: HEK293
Method: HEK293 cells were cultured in a DMEM medium containing 10% fetal bovine serum and 0.8 mg/mL G418 at 37 °C with 5% CO2. The cells were digested by TrypLE™ Express and then centrifuged. The cell density was adjusted to 2 × 10^6 cells/mL. The cells were then gently mixed for 15 to 20 min using a shaker equilibrated at room temperature, and subjected to a patch clamp assay on a machine. The culture medium of the prepared cells was replaced with extracellular fluid. The intracellular fluid and the extracellular fluid were taken from the fluid pool and added to the intracellular fluid pool and the cell and test substance pool of the QPlate chip, respectively. The voltage stimulation of the whole-cell hERG potassium current was recorded by the whole-cell patch clamp, and the experimental data were collected and stored by Qpatch. […] The current detected in compound-free extracellular fluid for each cell served as its own control group, and the detection was repeated twice independently using at least two cells per concentration. […] For data analysis, the current after the action of each drug concentration and the current of the blank control were standardized ((Peak tail currentcompound)/(Peak tail currentvehicle)) [formula] , and then the inhibition rate corresponding to each drug concentration was calculated (1−(Peak tail currentcompound)/(Peak tail currentvehicle)) [formula] . […]

T2 sequence (P11712 whole entry): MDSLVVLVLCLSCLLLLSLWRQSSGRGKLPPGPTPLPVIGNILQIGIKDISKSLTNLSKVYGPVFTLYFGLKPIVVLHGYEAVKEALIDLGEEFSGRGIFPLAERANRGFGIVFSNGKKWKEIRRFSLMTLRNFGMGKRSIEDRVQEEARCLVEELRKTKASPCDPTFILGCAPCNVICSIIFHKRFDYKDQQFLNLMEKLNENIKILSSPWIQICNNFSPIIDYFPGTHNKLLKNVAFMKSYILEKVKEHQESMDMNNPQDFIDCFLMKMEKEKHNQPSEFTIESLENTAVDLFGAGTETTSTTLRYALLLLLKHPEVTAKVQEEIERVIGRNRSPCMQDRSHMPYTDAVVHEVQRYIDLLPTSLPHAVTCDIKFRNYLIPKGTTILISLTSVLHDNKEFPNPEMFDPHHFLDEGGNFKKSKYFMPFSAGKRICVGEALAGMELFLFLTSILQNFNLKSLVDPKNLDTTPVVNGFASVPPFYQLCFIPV
T4 sequence (P10635 whole entry): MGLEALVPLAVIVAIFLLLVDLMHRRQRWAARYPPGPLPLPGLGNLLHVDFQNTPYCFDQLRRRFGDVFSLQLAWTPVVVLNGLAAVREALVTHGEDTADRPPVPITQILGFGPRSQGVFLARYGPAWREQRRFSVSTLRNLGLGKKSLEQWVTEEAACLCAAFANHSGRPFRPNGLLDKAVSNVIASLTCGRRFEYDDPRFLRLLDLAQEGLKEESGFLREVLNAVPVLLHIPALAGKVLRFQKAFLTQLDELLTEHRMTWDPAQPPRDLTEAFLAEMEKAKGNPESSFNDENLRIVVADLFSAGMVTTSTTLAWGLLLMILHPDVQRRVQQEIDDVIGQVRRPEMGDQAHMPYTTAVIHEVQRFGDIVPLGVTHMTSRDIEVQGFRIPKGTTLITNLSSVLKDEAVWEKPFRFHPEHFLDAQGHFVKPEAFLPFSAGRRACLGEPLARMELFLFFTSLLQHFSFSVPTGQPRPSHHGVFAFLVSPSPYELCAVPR
T3 sequence (P33261 whole entry): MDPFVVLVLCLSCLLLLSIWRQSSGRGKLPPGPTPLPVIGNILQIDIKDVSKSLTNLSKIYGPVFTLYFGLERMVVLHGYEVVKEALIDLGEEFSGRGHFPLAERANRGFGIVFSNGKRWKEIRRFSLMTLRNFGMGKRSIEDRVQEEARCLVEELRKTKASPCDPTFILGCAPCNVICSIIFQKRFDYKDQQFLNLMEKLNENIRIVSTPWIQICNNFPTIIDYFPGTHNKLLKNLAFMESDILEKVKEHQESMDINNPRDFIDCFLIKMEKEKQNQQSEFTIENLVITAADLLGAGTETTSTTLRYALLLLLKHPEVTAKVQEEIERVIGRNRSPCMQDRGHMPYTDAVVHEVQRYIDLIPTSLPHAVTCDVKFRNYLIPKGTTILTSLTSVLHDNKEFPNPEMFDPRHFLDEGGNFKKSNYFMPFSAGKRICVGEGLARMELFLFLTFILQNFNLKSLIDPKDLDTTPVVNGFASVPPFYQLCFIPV
T5 sequence (Q12809 whole entry): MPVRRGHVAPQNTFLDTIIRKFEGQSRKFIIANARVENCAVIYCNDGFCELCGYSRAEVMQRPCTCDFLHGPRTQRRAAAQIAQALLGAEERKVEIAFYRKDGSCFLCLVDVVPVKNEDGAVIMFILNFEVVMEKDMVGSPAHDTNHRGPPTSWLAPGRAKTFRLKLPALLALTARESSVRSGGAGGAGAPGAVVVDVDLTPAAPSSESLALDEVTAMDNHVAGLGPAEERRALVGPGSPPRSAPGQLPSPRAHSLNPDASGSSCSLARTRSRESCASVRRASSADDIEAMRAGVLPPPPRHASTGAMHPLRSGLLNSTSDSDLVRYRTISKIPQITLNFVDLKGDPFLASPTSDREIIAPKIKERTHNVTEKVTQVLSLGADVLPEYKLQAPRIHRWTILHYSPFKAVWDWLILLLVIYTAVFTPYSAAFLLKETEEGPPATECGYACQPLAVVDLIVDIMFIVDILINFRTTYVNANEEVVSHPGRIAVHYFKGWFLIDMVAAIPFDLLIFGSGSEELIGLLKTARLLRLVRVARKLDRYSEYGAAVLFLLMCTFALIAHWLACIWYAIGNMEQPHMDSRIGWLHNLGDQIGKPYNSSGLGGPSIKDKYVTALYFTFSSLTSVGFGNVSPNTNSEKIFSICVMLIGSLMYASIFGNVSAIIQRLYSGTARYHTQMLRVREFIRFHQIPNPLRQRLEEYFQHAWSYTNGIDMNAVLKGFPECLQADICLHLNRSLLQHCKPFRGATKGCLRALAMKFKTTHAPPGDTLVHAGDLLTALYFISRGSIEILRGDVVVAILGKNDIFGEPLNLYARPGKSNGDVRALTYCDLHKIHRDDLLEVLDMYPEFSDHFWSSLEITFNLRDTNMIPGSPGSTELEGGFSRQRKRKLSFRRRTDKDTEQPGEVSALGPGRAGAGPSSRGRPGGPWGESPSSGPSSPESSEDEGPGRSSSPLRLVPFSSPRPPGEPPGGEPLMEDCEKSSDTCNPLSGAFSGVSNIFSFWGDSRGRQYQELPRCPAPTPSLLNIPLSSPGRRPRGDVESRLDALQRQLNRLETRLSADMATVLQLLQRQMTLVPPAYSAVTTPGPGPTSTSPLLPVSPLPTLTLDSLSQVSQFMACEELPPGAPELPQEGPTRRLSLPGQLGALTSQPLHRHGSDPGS

Cn1ncc2c(N)nc3cc(F)c(C(=O)N4CCOC[C@@H]4c4ccc5c(c4)OC(F)(F)O5)cc3c21 [Example I-7]
IC50 ([1]; human, microsomes, pH 7.4): > 10 µM
IC50 ([2]; human, microsomes, pH 7.4): > 10 µM
IC50 ([3]; human, microsomes, pH 7.4): > 10 µM
IC50 ([4]; human, microsomes, pH 7.4): > 10 µM

Cn1ncc2c(N)nc3cc(F)c(C(=O)N(Cc4ccc5c(c4)OC(F)(F)O5)C4CC4)cc3c21 [Example I-16]
IC50 ([1]; human liver microsomes, 1A2, read-out: IC50): > 10 µM
IC50 ([2]; human liver microsomes, 2C9, read-out: IC50): > 10 µM
IC50 ([3]; human liver microsomes, 2C19, read-out: IC50): > 10 µM
IC50 ([4]; human liver microsomes, 2D6, read-out: IC50): > 10 µM

Cn1ncc2c(N)nc3cnc(C(=O)N4CCOC[C@@H]4c4ccc5c(c4)OC(F)(F)O5)cc3c21 [Example I-38]
IC50 [5]: 22 µM
